The values below come from patent US20250129070A1, “BIFUNCTIONAL ANDROGEN RECEPTOR COMPOUNDS” (priority 2023, published 2025).

The IC50 is the midpoint of a concentration-inhibition curve. A lower IC50 goes with greater potency in that assay. The EC50 is the midpoint of the concentration-response curve. A low value points to greater potency.

What all share (format): cell-based
One assay concerns HEK-293 cells. Briefly: HEK-293 growth inhibition assay. The following applies: 3 days, CTG. Here is the method: Cluster plates are returned to the incubator (37*C/5% CO2) for 24 hours prior to treatment. […] Cluster plates are returned to the incubator for 3 days.
After the 3-day treatment period, 100 uL media was removed from each well by aspiration and 100 uL room temperature CTG reagent (Promega Cat #G7573) is added back to each well. The cluster plates are placed on a shaker and incubated at room temperature for 20 minutes. Following this shaking/incubation, cluster plates are read on a luminometer (BMG ClarioStar). IC50 values are obtained by graphing the RLU data vs. compound concentration with nonlinear regression 4-parameter logistic curves (GraphPad Prism).

A further assay concerns AR / CBP ternary complex. Briefly: Ternary complex formation assay (sandwich ELISA, AR capture / CBP detection) in VCaP cell lysates. The settings on record: 1.5 hours treatment, sandwich ELISA (AR capture, CBP or p300 detection). Summed up:
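VCaP cells (50K/well, 5% charcoal-stripped FBS, ≥3 days) treated with bifunctional compound for 1.5 h, then lysed 30 min at 4 °C. AR captured on anti-AR (AR 441) plates; bound CBP or p300 detected by rabbit mAb plus HRP secondary. QuantaRed chemifluorescence read at ex 570/em 585, immediately and at 5 and 15 min.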

The next assay has as its system VCaP cells. Briefly: VCaP growth inhibition assay. The following applies: 30 pM R1881, 9 days, CTG. Summed up: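 VCaP cells in phenol red-free DMEM/5% CSS, pre-incubated 72 h, then stimulated with R1881 (final 30 pM) and treated with 1:5 serial dilutions (final 100 nM to 10 fM) for 9 days at 37 °C. Viability by CellTiter-Glo luminescence; IC50 from 4-parameter logistic fit of RLU vs concentration.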

On to `CNC(=O)N1CCc2c(c(N3CCCc4cc(-c5cnn(C)c5)c(C(F)F)cc43)nn2C2CCN(CCOc3ncc(C(=O)NC4C(C)(C)C(Oc5ccc(C#N)c(Cl)c5)C4(C)C)cn3)CC2)C1` (centres unmarked) [Compound 87, 1-[1-[2-[5-[[3-(3-chloro-4-cyano-phenoxy)-2,2,4,4-tetramethyl-cyclobutyl]carbamoyl]pyrimidin-2-yl]oxyethyl]-4-piperidyl]-3-[7-(difluoromethyl)-6-(1-methylpyrazol-4-yl)-3,4-dihydro-2H-quinolin-1-yl]-N-methyl-6,7-dihydro-4H-pyrazolo[4,3-c]pyridine-5-carboxamide], for which the results for the IC50 in the assay on HEK-293 cells and in the assay on VCaP cells were > 10000 nM and 0.1 to 1 nM, respectively. In addition, the EC50 in the assay on AR / CBP ternary complex is < 1 nM.

Regarding `CC(=O)N1CCc2c(c(-c3cccc4cc(-c5cnc(C(=O)NCc6ncc(C(=O)NC7C(C)(C)C(Oc8ccc(C#N)c(Cl)c8)C7(C)C)cn6)nc5)ncc34)nn2C2CCOCC2)C1` (centres unmarked) [Compound 75, 5-[8-(5-acetyl-1-tetrahydropyran-4-yl-6,7-dihydro-4H-pyrazolo[4,3-c]pyridin-3-yl)-3-isoquinolyl]-N-[[5-[[3-(3-chloro-4-cyano-phenoxy)-2,2,4,4-tetramethyl-cyclobutyl]carbamoyl]pyrimidin-2-yl]methyl]pyrimidine-2-carboxamide], the IC50 with HEK-293 cells was > 10000 nM; in the assay on VCaP cells, 0.1 to 1 nM. Moreover, the EC50 in the assay on AR / CBP ternary complex was > 100 nM.

Take `CNC(=O)N1CCc2c(c(N3CCCc4cc(-c5cnn(C)c5)c(C(F)F)cc43)nn2C2CCN(C(=O)CN3CCN(c4ccc(C(=O)NC5C(C)(C)C(Oc6ccc(C#N)c(Cl)c6)C5(C)C)cc4)CC3)CC2)C1` (centres unmarked) [Compound 41, 1-[1-[2-[4-[4-[[3-(3-chloro-4-cyano-phenoxy)-2,2,4,4-tetramethyl-cyclobutyl]carbamoyl]phenyl]piperazin-1-yl]acetyl]-4-piperidyl]-3-[7-(difluoromethyl)-6-(1-methylpyrazol-4-yl)-3,4-dihydro-2H-quinolin-1-yl]-N-methyl-6,7-dihydro-4H-pyrazolo[4,3-c]pyridine-5-carboxamide]: the IC50 in the assay with HEK-293 cells is > 10000 nM; in the assay on VCaP cells, 0.1 to 1 nM. Further, in the assay on AR / CBP ternary complex, the EC50 is < 1 nM.

With `CNC(=O)N1CCc2c(c(N3CCCc4cc(-c5cnn(C)c5)c(C(F)F)cc43)nn2C2CCN(Cc3ncc(C(=O)NC4C(C)(C)C(Oc5ccc(C#N)c(Cl)c5)C4(C)C)cn3)CC2)C1` (centres unmarked) [Compound 91, 1-[1-[[5-[[3-(3-chloro-4-cyano-phenoxy)-2,2,4,4-tetramethyl-cyclobutyl]carbamoyl]pyrimidin-2-yl]methyl]-4-piperidyl]-3-[7-(difluoromethyl)-6-(1-methylpyrazol-4-yl)-3,4-dihydro-2H-quinolin-1-yl]-N-methyl-6,7-dihydro-4H-pyrazolo[4,3-c]pyridine-5-carboxamide], the results for the IC50 with HEK-293 cells and with VCaP cells were > 10000 nM and > 100 nM, respectively. Besides, the EC50 in the assay with AR / CBP ternary complex was > 100 nM.

As for `CNC(=O)N1CCc2c(c(N3CCCc4cc(-c5cnn(C)c5)c(C(F)F)cc43)nn2C2CCN(CC3CCN(c4ncc(C(=O)NC5C(C)(C)C(Oc6ccc(C#N)c(Cl)c6)C5(C)C)cn4)CC3)CC2)C1` (centres unmarked) [Compound 82, 1-[1-[[1-[5-[[3-(3-chloro-4-cyano-phenoxy)-2,2,4,4-tetramethyl-cyclobutyl]carbamoyl]pyrimidin-2-yl]-4-piperidyl]methyl]-4-piperidyl]-3-[7-(difluoromethyl)-6-(1-methylpyrazol-4-yl)-3,4-dihydro-2H-quinolin-1-yl]-N-methyl-6,7-dihydro-4H-pyrazolo[4,3-c]pyridine-5-carboxamide], the IC50 in the assay on HEK-293 cells is > 10000 nM; in the assay with VCaP cells, ≤ 0.1 nM. The EC50 with AR / CBP ternary complex is < 1 nM.

`CC(=O)N1CCc2c(c(-c3cccc4cc(-c5cnc(CCN(C)c6ncc(C(=O)NC7C(C)(C)C(Oc8ccc(C#N)c(Cl)c8)C7(C)C)cn6)nc5)ncc34)nn2C2CCOCC2)C1` (centres unmarked) [Compound 74, 2-[2-[5-[8-(5-acetyl-1-tetrahydropyran-4-yl-6,7-dihydro-4H-pyrazolo[4,3-c]pyridin-3-yl)-3-isoquinolyl]pyrimidin-2-yl]ethyl-methyl-amino]-N-[3-(3-chloro-4-cyano-phenoxy)-2,2,4,4-tetramethyl-cyclobutyl]pyrimidine-5-carboxamide]: the IC50 with HEK-293 cells is > 10000 nM; in the assay with VCaP cells, 1 to 100 nM. Also, the EC50 in the assay on AR / CBP ternary complex was < 1 nM.

`CC(=O)N1CCc2c(c(-c3cccc4cc(-c5ccc(C(=O)NCC6CCN(c7ncc(C(=O)NC8C(C)(C)C(Oc9ccc(C#N)c(Cl)c9)C8(C)C)cn7)CC6)nc5)ncc34)nn2C2CCOCC2)C1` (centres unmarked) [Compound 110, 2-[4-[[[5-[8-(5-acetyl-1-tetrahydropyran-4-yl-6,7-dihydro-4H-pyrazolo[4,3-c]pyridin-3-yl)-3-isoquinolyl]pyridine-2-carbonyl]amino]methyl]-1-piperidyl]-N-[3-(3-chloro-4-cyano-phenoxy)-2,2,4,4-tetramethyl-cyclobutyl]pyrimidine-5-carboxamide]: the IC50 in the assay on HEK-293 cells is > 10000 nM; in the assay on VCaP cells, ≤ 0.1 nM.

On to `CC(=O)N1CCc2c(c(N3CCCc4cc(-c5cnn(C)c5)c(C)cc43)nn2C2CCN(CC3CCN(c4ncc(C(=O)NC5C(C)(C)C(Oc6ccc(C#N)c(C)c6)C5(C)C)cn4)CC3(C)C)CC2)C1` (centres unmarked) [Compound 466, 2-[4-[[4-[5-acetyl-3-[7-methyl-6-(1-methylpyrazol-4-yl)-3,4-dihydro-2H-quinolin-1-yl]-6,7-dihydro-4H-pyrazolo[4,3-c]pyridin-1-yl]-1-piperidyl]methyl]-3,3-dimethyl-1-piperidyl]-N-[3-(4-cyano-3-methyl-phenoxy)-2,2,4,4-tetramethyl-cyclobutyl]pyrimidine-5-carboxamide], for which the EC50 in the assay on AR / CBP ternary complex is < 1 nM. Besides, the IC50 in the assay with VCaP cells was 0.1 to 1 nM.

Regarding `CC(=O)N1CCc2c(c(N3CCCc4cc(-c5cnn(C)c5)c(C(F)F)cc43)nn2CCN(C)c2ncc(C(=O)NC3C(C)(C)C(Oc4ccc(C#N)c(Cl)c4)C3(C)C)cn2)C1` (centres unmarked) [Compound 45, 2-[2-[5-acetyl-3-[7-(difluoromethyl)-6-(1-methylpyrazol-4-yl)-3,4-dihydro-2H-quinolin-1-yl]-6,7-dihydro-4H-pyrazolo[4,3-c]pyridin-1-yl]ethyl-methyl-amino]-N-[3-(3-chloro-4-cyano-phenoxy)-2,2,4,4-tetramethyl-cyclobutyl]pyrimidine-5-carboxamide], the EC50 in the assay with AR / CBP ternary complex is > 100 nM. Moreover, the IC50 with VCaP cells is > 100 nM.

Turning to `COc1cc(OC2C(C)(C)C(NC(=O)c3ccc(N4CCC[C@H](N5CCC(n6nc(N7CCCc8cc(-c9cnn(C)c9)c(C(F)F)cc87)c7c6CCN(C(C)=O)C7)CC5)C4)cc3)C2(C)C)ccc1C#N` (stereo partly drawn) [Compound 399, 4-[(3S)-3-[4-[5-acetyl-3-[7-(difluoromethyl)-6-(1-methylpyrazol-4-yl)-3,4-dihydro-2H-quinolin-1-yl]-6,7-dihydro-4H-pyrazolo[4,3-c]pyridin-1-yl]-1-piperidyl]-1-piperidyl]-N-[3-(4-cyano-3-methoxy-phenoxy)-2,2,4,4-tetramethyl-cyclobutyl]benzamide], in the assay on AR / CBP ternary complex, the EC50 was in the range of 1 to 10 nM. Also, in the assay with VCaP cells, the IC50 was 1 to 100 nM.

Take `CNC(=O)N1CCc2c(c(N3CCCc4cc(-c5cnn(C)c5)c(C(F)F)cc43)nn2C2CCN(c3ncc(C(=O)NC4C(C)(C)C(Oc5ccc(C#N)c(Cl)c5)C4(C)C)cn3)CC2)C1` (centres unmarked) [Compound 93, 1-[1-[5-[[3-(3-chloro-4-cyano-phenoxy)-2,2,4,4-tetramethyl-cyclobutyl]carbamoyl]pyrimidin-2-yl]-4-piperidyl]-3-[7-(difluoromethyl)-6-(1-methylpyrazol-4-yl)-3,4-dihydro-2H-quinolin-1-yl]-N-methyl-6,7-dihydro-4H-pyrazolo[4,3-c]pyridine-5-carboxamide]: the EC50 in the assay with AR / CBP ternary complex is > 100 nM. In the assay on VCaP cells, this compound displayed a concentration for half-maximal inhibition (IC50) of 0.1 to 1 nM.

Regarding `CC(=O)N1CCc2c(c(N3CCCc4cc(-c5cnn(C)c5)c(C(F)F)cc43)nn2C2CCN(CC#CCCc3ncc(C(=O)NC4C(C)(C)C(Oc5ccc(C#N)c(Cl)c5)C4(C)C)cn3)CC2)C1` (centres unmarked) [Compound 18, 2-[5-[4-[5-acetyl-3-[7-(difluoromethyl)-6-(1-methylpyrazol-4-yl)-3,4-dihydro-2H-quinolin-1-yl]-6,7-dihydro-4H-pyrazolo[4,3-c]pyridin-1-yl]-1-piperidyl]pent-3-ynyl]-N-[3-(3-chloro-4-cyano-phenoxy)-2,2,4,4-tetramethyl-cyclobutyl]pyrimidine-5-carboxamide], the EC50 with AR / CBP ternary complex is < 1 nM. This compound also yielded an IC50 in the assay with VCaP cells of 0.1 to 1 nM.

In the case of `CC(=O)N1CCc2c(c(N3CCCc4cc(-c5cnn(C)c5)c(C(F)F)cc43)nn2C2CCN(C3CCN(c4ncc(C(=O)NC5C(C)(C)C(Oc6ccc(C#N)c(Cl)c6)C5(C)C)cn4)CC3)C2)C1` (centres unmarked) [Compound 12, 2-[4-[3-[5-acetyl-3-[7-(difluoromethyl)-6-(1-methylpyrazol-4-yl)-3,4-dihydro-2H-quinolin-1-yl]-6,7-dihydro-4H-pyrazolo[4,3-c]pyridin-1-yl]pyrrolidin-1-yl]-1-piperidyl]-N-[3-(3-chloro-4-cyano-phenoxy)-2,2,4,4-tetramethyl-cyclobutyl]pyrimidine-5-carboxamide], the EC50 in the assay with AR / CBP ternary complex is 1 to 10 nM. This compound displayed an IC50 in the assay on VCaP cells of 1 to 100 nM.
